In patent US20140303322A1, “ANTIMICROBIAL AND BACTERIOSTATIC-MODIFIED POLYMERS FOR CELLULOSE FIBRES” (priority 2012, published 2014):
Marks after values point to notes of the source that are not given here.

Experiments:
E. coli ATCC 11229 = assay: Shaking flask method, antibiotics/CPβCD complexes on cellulose fibres; assay type: cell-based, Escherichia coli; conditions: CPβCD complex
[1] = Water solubility of triclosan and butylparaben (UV spectrophotometer); assay type: physicochemical; conditions: FIGS. 13 and 14; complex with CPβCD
Source text: The triclosan/CPβCD or butylparaben/CPβCD complex can be prepared by adopting the procedures described by Arias et al. (1997)^7 and Mura et al. (2002)^8. […] The solubility of triclosan or butylparaben can be determined by a UV spectrophotometer at wavelength of 282 nm and 256 nm, respectively.

[2] = concentration 0.03 % wt, contacting time 1 hour
[3] = concentration 0.06 % wt, contacting time 1 hour
[4] = concentration 0.125 % wt, contacting time 1 hour
[5] = concentration 0.25 % wt, contacting time 1 hour
[6] = concentration 0.5 % wt, contacting time 1 hour
[7] = concentration 1 % wt, contacting time 1 hour
[8] = contacting time 0.5 min, antibiotic 0.5% wt based on cellulose fibres
[9] = contacting time 1 min, antibiotic 0.5% wt based on cellulose fibres
[10] = contacting time 3 min, antibiotic 0.5% wt based on cellulose fibres
[11] = contacting time 10 min, antibiotic 0.5% wt based on cellulose fibres
[12] = contacting time 30 min, antibiotic 0.5% wt based on cellulose fibres
[13] = contacting time 60 min, antibiotic 0.5% wt based on cellulose fibres

| Structure (SMILES) | Growth inhibition (%) (E. coli ATCC 11229; [2]) | Growth inhibition (%) (E. coli ATCC 11229; [3]) | Growth inhibition (%) (E. coli ATCC 11229; [4]) | Growth inhibition (%) (E. coli ATCC 11229; [5]) | Growth inhibition (%) (E. coli ATCC 11229; [6]) | Growth inhibition (%) (E. coli ATCC 11229; [7]) | Growth inhibition (%) (E. coli ATCC 11229; [8]) | Growth inhibition (%) (E. coli ATCC 11229; [9]) | Growth inhibition (%) (E. coli ATCC 11229; [10]) | Growth inhibition (%) (E. coli ATCC 11229; [11]) | Growth inhibition (%) (E. coli ATCC 11229; [12]) | Growth inhibition (%) (E. coli ATCC 11229; [13]) | water solubility as a function of CPβCD content [1] |
| --- | --- | --- | --- | --- | --- | --- | --- | --- | --- | --- | --- | --- | --- |
| Oc1cc(Cl)ccc1Oc1ccc(Cl)cc1Cl [Triclosan] | 23.2 | 50.2 | 68.1 | 87.1 | 99.7 | 100 | 24.6 | 37.7 | 61.0 | 95.8% | 99.6 | 100 | linear increased with the CPβCD content |
| CCCCOC(=O)c1ccc(O)cc1 [Butylparaben, butylparaben] | 4.54 | 9.09 | 54.6 | 81.8 | 99.9 | 100 | 50.0 | 61.9 | 95.8 | 100**** % | 100 | 100 | linear increased with the CPβCD content |
